Assays:
[1] = test system: mouse ovaries stimulated with PMSG; assay: Histology (hematoxylin and eosin) of ovaries after PMSG stimulation in vivo: number of ovarian follicles; settings: treated ovaries compared to the ovaries of the control; after hormonal stimulation; FIG. 1A
Experimental: In this experiment, as a control, young mice (7 to 9 weeks old, n=15), and as an experimental group, old mice (55 to 60 weeks old, n=30) were prepared. In the drawing, the experimental results of the young mice are indicated as ‘Young,’ and the experimental results of the old mice are indicated as ‘Old.’
(§1) For in vivo hormone stimulation, the old mice were treated with the Example compound, and 12 hours later, 75 IU pregnant mare serum gonadotropin (PMSG: RP1782725000; BioVendor, Czech Republic) was injected into the mice. A control is a group administered only 751U PMSG. Female mice were superovulated by injecting hormones intraperitoneally at intervals of 48 hours. The administered hormones were PMSG (7.5 IU) and human chorionic gonadotropin (hCG: 668900221; LG Chem. Seoul, Korea: 7.5 IU). After secondary hormone treatment, female mice were mated with male mice (2:1 or 1:1). Modified pronuclear cells (2PNs) were obtained 24 hours after hCG injection.
In Experimental Example 1, the effect of treatment with Example Compound on mouse ovaries stimulated with PMSG in vivo was evaluated. Light microscopy imaging was performed on the ovaries of young mice, and old mice treated and not treated with Example Compound.
Each sample was fixed with 4% paraformaldehyde at room temperature for 30 minutes, and the fixed tissue was washed with PBS and embedded in paraffin with a thickness of 5 μm. […]

old ovaries (GV oocytes) = assay: Number of GV oocytes collected from ovaries after superovulation; type: in vivo, mouse; settings: old ovaries treated vs old ovaries not treated; FIGS. 1B and 1C
Experimental: Female mice (young mice: 7-8 weeks old; old mice: 40 weeks or older) were superovulated by intraperitoneally injecting pregnant mare serum gonadotropin (PMSG: G4527, Sigma Aldrich: 7.5 IU). Germinal vesicle (GV) oocytes were collected from the ovaries 48 hours after PMSG injection. For zygotes, female mice were injected with PMSG, and 48 hours later, injected with hCG, and then placed overnight with BDF1 stud male mice, which were approximately 10 to 12 weeks old. The next day, plugs of the female mice were examined, and zygotes and two-cell embryos were collected from the oviducts 18 to 20 hours and 36 hours after hCG injection, respectively.
After inducing superovulation, the numbers of GV oocytes in the ovaries of the old mice and young mice treated with Example Compound were evaluated.
The measurement of the number of GV oocytes was performed by collecting mouse eggs from each group (the number of eggs of young mice: 15: the number of eggs of old mice: 30; and the number of eggs of old mice treated with Example Compound: 30), physically chopping the eggs to collect ovarian follicles, and isolating GV oocytes in the ovarian follicles to count the number of cells.

[2] = test system: fertilized 2PN embryos of old mice; assay: Pre-implantation development of fertilized 2PN embryos from treated old mice; type: in vivo, mouse
Experimental: as §1
In Experimental Example 2, the effect of fertilized 2PN embryo development on the ovaries of the old mice treated with Example Compound was evaluated.
27 pronuclear cells of the old mice (n=15) treated with Example Compound and 62 pronuclear cells of the old mice (n=15) not treated with Example Compound as a control were cultured. Afterward, the number of cells at each of 2-cell, 4-cell, 8-cell, morula, early blastocyst, and late blastocyst stages was measured using a microscope, and expressed as a percentage.

ovaries of old mice = assay: Ovarian gene expression pattern by next generation sequencing (mRNA sequencing); type: in vivo, mouse; settings: NGS; genes increased in the old group
Experimental: A major change in gene expression caused by treatment with Example Compound was confirmed through next generation sequencing (NGS).
mRNA sequencing was performed according to References. RNA was extracted using a TRIzol (15596026. Thermo Fisher) solution. Sequencing libraries were prepared according to the manufacturer's instructions using the TruSeq Stranded mRNA LT Sample Prep Kit (Illumina). Paired end 101 bp sequencing was performed using the Illumina platform (NovaSeq 6000, Illumina). The results of two experiments were obtained for each group.
According to the criteria (1st trimming, base quality<3, window size=4, mean quality=15; 2nd trimming: min length=36 bp), paired end read data was trimmed using Trimmomatic (Bolger et al., 2014). Using the HISAT2 program (Kim et al., 2019; Nat Biotechnol 37, 907-915, 2019), trimmed reads were mapped to the UCSC genome database. Also, the mapping results were quantified using StringTie (Pertea et al., 2015; Nat Biotechnol. 2015 March; 33(3): 290-295) and gene/transcript-based annotations (NCBI Annotation Release 108).
Differential expression gene analysis was performed using DESeq2 according to the criteria (baseMean counts>14, false discover rate (FDR)<0.1, and log 2FoldChange>1). […]

[3] = test system: Ptpn6, Fcer1g, Tyrobp, Slamf9, Clec4a3 mRNA; assay: RT-qPCR of immune system regulatory genes (tumor necrosis factor superfamily cytokine production) in ovaries; type: in vivo, mouse; settings: old experimental group treated, FIG. 3B
Experimental: In this experiment, a change in the expression of immune system regulatory genes (genes involved with tumor necrosis factor superfamily cytokine production) was quantitatively evaluated using real-time quantitative PCR (RT-qPCR) according to the treatment of aged models with Example Compound.
RT-qPCR was performed on each ovary using the TRIzol protocol, total RNA was extracted from a lysate using the RNeasy mini kit (Qiagen Ltd.), and the extracted total RNA was reverse-transcribed using a Superscript kit (Invitrogen) containing a random hexamer to synthesize cDNA.
Gene expression levels were confirmed using primers and the SsoAdvanced Universal SYBR Green Supermix (Bio-Rad. US) in the CFX96 Touch Real-Time PCR detection system (Bio Rad, US).
For each gene tested, a comparative threshold cycle (CT) method that normalizes the accumulated PCR product to the reference gene beta-actin was used, and repeated three times.
The PCR product was loaded on a 2% agarose gel and stained with Safeview™ (Applied Biological Materials. Richmond, Canada), and the gel was visualized under UV light using a gel documentation system (WSE-6100 LuminoGraph; ATTO, Tokyo, Japan), and the product bands were analyzed by the analysis of intensity ratios using ImageJ software.

[4] = test system: longevity-related genes, steroidogenesis-related genes, primordial follicle factors, ovarian function factors; assay: RT-PCR of ovarian function-related genes in ovaries of old mice; type: in vivo, mouse
Text: The expression of ovarian function-related genes in the ovaries of old mice treated with Example Compound was confirmed by reverse transcription-polymerase chain reaction (RT-PCR).
mRNA was extracted from oocytes using a TRIzol (TRIzol RNA, 15596026, Thermo Fisher) solution and subjected to RT-PCR. The PCR product was stained with SafeView™ (Applied Biological Materials, Richmond, Canada) and loaded on a 2% agarose gel. Additionally, the gel was visualized under UV light using a gel documentation system (WSE-6100 LuminoGraph; ATTO, Tokyo, Japan). The intensity ratios of the product bands were analyzed using the ImageJ software program.
The expression of primordial follicle factors, such as Nanog, Oct3/4, and p63, and ovarian function factors, such as AMH and BMP15, in the ovaries of the mice treated with Example Compound were analyzed by RT-PCR.
In FIGS. 4A and 4B, “Young” indicates a young mouse, “Old” indicates an old mouse, and “Old+Compound 1” indicates an old mouse treated with Example Compound.
In FIG. 4A, the upper left box indicates longevity-related genes, the lower left box indicates steroidogenesis-related genes, the upper right box indicates primordial follicle factors, and the lower right box indicates ovarian function factors.

[5] = old mice treated, 27 pronuclear cells cultured
[6] = old mice treated vs old mice not treated

Structure (SMILES): O=S1(=O)CCN(Cc2cc(NC3CCOCC3)c3[nH]c(-c4ccccc4)cc3c2)CC1 [Example Compound, 5-[(1,1-dioxido-4-thiomorpholinyl)methyl]-2-phenyl-N-(tetrahydro-2H-pyran-4-yl)-1H-indol-7-amine]
- total number of ovarian follicles, including preantral follicles and antral follicles [1]: significantly higher
- total number of oocytes collected at the GV stage (old ovaries (GV oocytes)): significantly higher
- embryo development rate higher than that of the control embryo ([2]; at the morula, early blastocyst, and late blastocyst stages, old mice, FIG. 2): 20%
- early blastocyst rate [2, 5]: 51.85%
- embryo development rate at the morula stage [2, 5]: 55.56%
- late blastocyst rate [2, 5]: 51.85%
- expression of Fcerlg, Slamf9, Clec4a3, Ptpn6, Tyrobp, Adipoq, Bcl3, Trem2, and Sash3 (TNF superfamily cytokine production DEGs) (ovaries of old mice): down-regulated
- mRNA expression levels of Ptpn6, Fcerlg, Tyrobp, Slamf9, and Clec4a3 [3]: lowered to levels similar to those of the young control
- expression levels of SOD2 and SIRT1 (longevity-related genes) [4, 6]: higher
- expression levels of steroid production-related genes Edn2, Tbxa2r, Oxtr, and Adra1d [4, 6]: significantly increased
- mRNA expression of Oct3/4, Nanog, p63, Lhcgr, AMH, GDF9, BMP15, and Kid ([4]; treated vs control not treated, FIGS. 4A and 4B): significantly higher

Reference: patent US20250082646A1, “OVARIAN ANTI-AGING PHARMACEUTICAL COMPOSITION AND USE THEREOF” (priority 2022, published 2025)
